From BindingDB's records for PubMed 35315650 (Korea Research Institute of Chemical Technology, 2022)

Assay: Agonist activity at STING in human wild-type THP1-Dual cells co-expressing ISRE reporter assessed as IRF-mediated immune response incubated for 24 hrs by QUANTI Luc based microplate reader method

Row | Compound | EC50 [µM]
1 | CCn1nc(C)cc1C(=O)/N=c1\[nH]c2cc(C(N)=O)ccc2n1CCCCn1/c(=N/C(=O)c2cc(C)nn2CC)[nH]c2cc(C(N)=O)ccc21 | 1.23
2 | CCn1nc(C)cc1C(=O)Nc1nc2cc(C(N)=O)cc(OC)c2n1CCCCNC(=O)OC(C)(C)C | 0.804
3 | CCn1nc(C)cc1C(=O)Nc1nc2cc(C(N)=O)cc(OC)c2n1C/C=C/Cn1c(NC(=O)c2cc(C)nn2CC)nc2cc(C(N)=O)cc(OCCCNC(=O)OC(C)(C)C)c21 | 0.000354
4 | CCn1nc(C)cc1C(=O)Nc1nc2cc(C(N)=O)cc(OCCCNC(=O)OC(C)(C)C)c2n1C | 1.66
5 | CCn1nc(C)cc1C(=O)Nc1nc2cc(C(N)=O)ccc2n1CCCCCNC(=O)OC(C)(C)C | 1.69
6 | CCn1nc(C)cc1C(=O)NCCCOc1cc(C(N)=O)cc2nc(NC(=O)c3cc(C)nn3CC)n(C/C=C/Cn3c(NC(=O)c4cc(C)nn4CC)nc4cc(C(N)=O)cc(OC)c43)c12 | 4e-06
7 | CCn1nc(C)cc1C(=O)Nc1nc2cc(C(N)=O)cc(OC)c2n1C/C=C/CNC(=O)OC(C)(C)C | 4.6
8 | CCn1nc(C)cc1C(=O)NCCCOc1cc(C(N)=O)cc2nc(NC(=O)c3cc(C)nn3CC)n(C)c12 | 6.22
9 | CCn1nc(C)cc1C(=O)Nc1nc2cc(C(N)=O)ccc2n1CCCCNC(=O)OC(C)(C)C | 6.55
10 | CCn1nc(C)cc1C(=O)NCCCCn1c(NC(=O)c2cc(C)nn2CC)nc2cc(C(N)=O)ccc21 | 9.12
11 | Cn1cc(C(=O)Nc2nc3cc(C(N)=O)ccc3n2CCCCn2c(NC(=O)c3cn(C)nc3C(F)(F)F)nc3cc(C(N)=O)ccc32)c(C(F)(F)F)n1 | 17.6
12 | CCn1nc(C)cc1C(=O)Nc1nc2cc(C(N)=O)ccc2n1CCCCNC(=O)c1ccccc1 | 28.6
13 | CCn1nc(C)cc1C(=O)Nc1nc2cc(C(N)=O)cc(OCCCN)c2n1C | 29.8
14 | CCn1nc(C)cc1C(=O)Nc1nc2cc(C(N)=O)ccc2n1CCCCNC(=O)c1cc(C)nn1C | 30.1
15 | CCn1nc(C)cc1C(=O)NCCCn1c(NC(=O)c2cc(C)nn2CC)nc2cc(C(N)=O)ccc21 | 39.1
16 | CCn1nc(C)cc1C(=O)Nc1nc2cc(C(N)=O)ccc2n1CCCNC(=O)OC(C)(C)C | 48.6
17 | CCn1nc(C)cc1C(=O)Nc1nc2cc(C(N)=O)ccc2n1CCCCNC(=O)C(C)(C)C | 51.1
18 | CCn1nc(C)cc1C(=O)Nc1nc2cc(C(N)=O)cc(OC)c2n1C/C=C/Cn1c(NC(=O)c2cc(C)nn2CC)nc2cc(C(N)=O)cc(OCCCN)c21 | 0.00162
